Laboratory results: ChEMBL document CHEMBL3085750, “Discovery of 2-methylpyridine-based biaryl amides as γ-secretase modulators for the treatment of Alzheimer's disease” (Bioorg Med Chem Lett, 2013)
pIC50: −log10 of the molar value.

Legend:
Gamma-secretase = assay: Modulation of gamma-secretase in HEK293 cells expressing guinea pig Swedish mutant SFV-APP695sw assessed as inhibition of amyloid beta-42 production after 16 to 18 hrs by HTRF assay; type: cell-based, Homo sapiens
[1] = Metabolic stability in rat liver microsomes at 1 uM after 30 mins; type: ADME; conditions: read-out: Stability
[2] = Metabolic stability in human liver microsomes at 1 uM after 30 mins; type: ADME; conditions: read-out: Stability
Cytochrome P450 2D6 = Cytochrome P450 2D6 (Homo sapiens, UniProt P10635); assay: Inhibition of CYP2D6 (unknown origin) after 10 mins; type: ADME
[3] = Ratio of drug level in brain to plasma in mouse at 10 mg/kg, po after 2 hrs; type: ADME, organism-based; parameters: dose 10 mg/kg, route oral; conditions: read-out: BPR
Cytochrome P450 3A4 = Cytochrome P450 3A4 (Homo sapiens, UniProt P08684); assay: Inhibition of CYP3A4 (unknown origin) after 5 mins; type: ADME
Sequence of Cytochrome P450 3A4 (P08684 whole entry): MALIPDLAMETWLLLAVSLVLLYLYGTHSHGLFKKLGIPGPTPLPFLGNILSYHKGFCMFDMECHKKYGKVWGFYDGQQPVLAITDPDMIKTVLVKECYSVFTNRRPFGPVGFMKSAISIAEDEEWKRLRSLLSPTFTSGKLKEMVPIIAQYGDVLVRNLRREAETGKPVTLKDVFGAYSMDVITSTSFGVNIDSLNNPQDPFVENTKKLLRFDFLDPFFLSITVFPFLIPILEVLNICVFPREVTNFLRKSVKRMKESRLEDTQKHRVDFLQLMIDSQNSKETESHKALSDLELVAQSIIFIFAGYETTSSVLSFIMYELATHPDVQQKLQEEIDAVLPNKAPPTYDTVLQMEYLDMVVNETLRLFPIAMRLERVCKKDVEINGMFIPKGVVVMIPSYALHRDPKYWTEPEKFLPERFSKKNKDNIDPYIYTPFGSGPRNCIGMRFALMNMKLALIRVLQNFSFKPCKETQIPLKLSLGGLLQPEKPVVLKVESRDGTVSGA

Sequence of Cytochrome P450 2D6 (P10635 whole entry): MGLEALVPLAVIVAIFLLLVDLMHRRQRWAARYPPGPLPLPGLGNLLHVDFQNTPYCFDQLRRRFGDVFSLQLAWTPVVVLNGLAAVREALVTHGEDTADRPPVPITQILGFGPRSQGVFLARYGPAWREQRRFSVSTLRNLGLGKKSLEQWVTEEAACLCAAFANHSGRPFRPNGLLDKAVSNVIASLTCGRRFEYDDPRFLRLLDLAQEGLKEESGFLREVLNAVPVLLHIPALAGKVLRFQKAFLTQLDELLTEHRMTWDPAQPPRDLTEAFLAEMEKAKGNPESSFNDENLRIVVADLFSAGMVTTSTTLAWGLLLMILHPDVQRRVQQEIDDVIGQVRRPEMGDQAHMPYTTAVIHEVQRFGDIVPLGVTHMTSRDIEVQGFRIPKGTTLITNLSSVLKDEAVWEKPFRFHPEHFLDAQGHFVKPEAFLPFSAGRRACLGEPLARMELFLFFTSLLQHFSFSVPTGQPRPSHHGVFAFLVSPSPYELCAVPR

| pIC50 (Gamma-secretase) | further results | Structure (SMILES) |
| --- | --- | --- |
| 6.82 |  | COc1ccc(-c2cccc(C(C)C(=O)Nc3ccc(-c4ccnc(C)c4)cc3)c2)cc1 (stereo unspecified) |
| < 5.00 | microsomal CLint at 1 µM [1]: > 399 µL/min/mg; microsomal CLint at 1 µM [2]: > 399 µL/min/mg; pIC50 (Cytochrome P450 2D6): < 4.57 | O=S(=O)(Nc1ccc(-c2ccco2)cc1)c1cc(Cl)cc(Cl)c1 |
| 5.92 |  | Cc1cc(-c2ccc(NC(=O)C(C)c3cccc(-c4ccncc4)c3)cc2)ccn1 (stereo unspecified) |
| 5.15 |  | Cc1cc(-c2ccc(NC(=O)C(C)c3cc(C#N)cc(C(F)(F)F)c3)cc2)ccn1 (stereo unspecified) |
| 6.14 | Kp at 2 h [3]: 0.1; pIC50 (Cytochrome P450 3A4): 5.33; microsomal CLint at 1 µM [1]: > 399 µL/min/mg; microsomal CLint at 1 µM [2]: 497 µL/min/mg; pIC50 (Cytochrome P450 2D6): 5.01 | Cc1cc(-c2ccc(NS(=O)(=O)c3cc(Cl)cc(Cl)c3)cc2)ccn1 |
| < 5.00 |  | Cc1cc(-c2ccc(NC(=O)Cc3cc(C(F)(F)F)cc(C(F)(F)F)c3)nc2)ccn1 |
| 5.03 | pIC50 (Cytochrome P450 3A4): < 4.57; microsomal CLint at 1 µM [1]: 113 µL/min/mg; microsomal CLint at 1 µM [2]: 22 µL/min/mg; pIC50 (Cytochrome P450 2D6): < 4.57 | Cc1nccn1-c1ccc(NS(=O)(=O)c2cc(Cl)cc(Cl)c2)cc1 |
| 5.98 |  | CCC(C(=O)Nc1ccc(-c2ccnc(C)c2)cc1)c1cccc(C)c1 (stereo unspecified) |
| < 5.00 | pIC50 (Cytochrome P450 3A4): 4.79; microsomal CLint at 1 µM [1]: > 399 µL/min/mg; microsomal CLint at 1 µM [2]: > 399 µL/min/mg; pIC50 (Cytochrome P450 2D6): < 4.57 | O=S(=O)(Nc1ccc(-c2ncccn2)cc1)c1cc(Cl)cc(Cl)c1 |
| 6.77 |  | Cc1cccc(C(CC(C)C)C(=O)Nc2ccc(-c3ccnc(C)c3)cc2)c1 (stereo in doubt; 50) |
| 5.87 |  | Cc1cc(-c2ccc(NC(=O)Cc3cc(C(F)(F)F)cc(C(F)(F)F)c3)cn2)ccn1 |
| 5.56 | Kp at 2 h [3]: 0.09; pIC50 (Cytochrome P450 3A4): 6.22; microsomal CLint at 1 µM [1]: 85 µL/min/mg; microsomal CLint at 1 µM [2]: 35 µL/min/mg; pIC50 (Cytochrome P450 2D6): 6.70 | O=S(=O)(Nc1ccc(-c2ccncc2)cc1)c1cc(Cl)cc(Cl)c1 |
| 6.09 |  | Cc1cc(-c2ccc(NC(=O)C(CC(C)C)c3cc(C(F)(F)F)cc(C(F)(F)F)c3)cc2)ccn1 (stereo unspecified) |
| 5.32 |  | Cc1cc(-c2ccc(NC(=O)C(C)c3cccc(N4CCOCC4)c3)cc2)ccn1 (stereo unspecified) |
| 6.66 |  | Cc1cc(-c2ccc(NC(=O)C(C)c3cccc(-c4cccc(C#N)c4)c3)cc2)ccn1 (stereo unspecified) |
| 6.28 |  | COc1cc(NS(=O)(=O)c2cc(C(F)(F)F)cc(C(F)(F)F)c2)ccc1-c1ccnc(C)c1 |
| 5.89 |  | Cc1cc(-c2ccc(NC(=O)C(C)c3cccc(-c4cccnc4)c3)cc2)ccn1 (stereo unspecified) |
| 5.84 |  | COc1cc(NC(=O)Cc2cc(C(F)(F)F)cc(C(F)(F)F)c2)ccc1-n1cnc(C)c1 |

| pIC50 (Gamma-secretase) | further results | Structure (SMILES) |
| --- | --- | --- |
| < 5.00 |  | Cc1cc(-c2ccc(N(C)C(=O)Cc3cc(C(F)(F)F)cc(C(F)(F)F)c3)cc2)ccn1 |
| < 5.00 |  | Cc1cc(-c2ccc(NC(=O)C(C)c3cc(C(F)(F)F)cc(C(F)(F)F)n3)cc2)ccn1 (stereo unspecified) |
| 6.38 |  | COc1cc(C(=O)NCCc2ccc(Cl)cc2)ccc1-n1cnc(C)c1 |
| 5.56 |  | Cc1cccc(CC(=O)Nc2ccc(-c3ccnc(C)c3)cc2)c1 |
| 6.24 |  | Cc1cc(C)cc(C(C)C(=O)Nc2ccc(-c3ccnc(C)c3)cc2)c1 (stereo unspecified) |
| 6.80 |  | Cc1cc(-c2ccc(NC(=O)C(C)c3cccc(N4CCN(c5ccccc5)CC4)c3)cc2)ccn1 (stereo unspecified) |
| 5.74 | pIC50 (Cytochrome P450 3A4): 5.66; microsomal CLint at 1 µM [1]: > 399 µL/min/mg; microsomal CLint at 1 µM [2]: 306 µL/min/mg; pIC50 (Cytochrome P450 2D6): 5.72 | COc1cc(-c2ccnc(C)c2)ccc1NS(=O)(=O)c1cc(C(F)(F)F)cc(C(F)(F)F)c1 |
| 6.60 |  | Cc1cc(-c2ccc(NC(=O)C(C)c3cccc(-c4ccc(C#N)cc4)c3)cc2)ccn1 (stereo unspecified) |
| 6.03 |  | CNc1ccc(-c2cccc(C(C)C(=O)Nc3ccc(-c4ccnc(C)c4)cc3)c2)cn1 (stereo unspecified) |
| 5.67 |  | Cc1cc(-c2ccc(NC(=O)C(O)c3cc(C(F)(F)F)cc(C(F)(F)F)c3)cc2)ccn1 (stereo unspecified) |
| < 5.00 |  | Cc1cc(-c2cccc(NC(=O)Cc3cc(C(F)(F)F)cc(C(F)(F)F)c3)c2)ccn1 |
| 6.27 |  | Cc1cccc(C(C)C(=O)Nc2ccc(-c3ccnc(C)c3)cc2)c1 (stereo unspecified) |
| 6.49 | microsomal CLint at 1 µM [1]: > 399 µL/min/mg | COc1cc(C(=O)NCCC(c2ccccc2)c2ccccc2)ccc1-n1cnc(C)c1 |
| 6.19 |  | Cc1cc(-c2ccc(NC(=O)C(C)c3cccc(-c4cnc(N5CCOCC5)nc4)c3)cc2)ccn1 (stereo unspecified) |
| 7.15 |  | Cc1cc(-c2ccc(NC(=O)C(C)c3cccc(-c4ccc(N5CCOCC5)cc4)c3)cc2)ccn1 (stereo unspecified) |
| 6.74 |  | Cc1cc(-c2ccc(NC(=O)C(C)c3cccc(-c4ccc(NC(C)C)nc4)c3)cc2)ccn1 (stereo unspecified) |
| 6.24 |  | Cc1cc(-c2ccc(NC(=O)C(C)c3cccc(-c4ccccc4C#N)c3)cc2)ccn1 (stereo unspecified) |
